Where two headings read alike, the source gives them in different places.

The target of experiment [1] is GDP-bound KRAS protein (aa 1-169), containing both G12C and C118A amino acid substitutions (Homo sapiens, UniProt P01116, C118A/G12C). In words: Coupled nucleotide exchange assay (SOS-mediated, AlphaScreen). Conditions: 5 min compound pre-incubation; for IC50: read-out: Coupled exchange IC50 (5 min). The class given is biochemical. For orientation: Alpha assays give light when donor and acceptor beads are brought close together.
Sequence of GDP-bound KRAS protein (aa 1-169), containing both G12C and C118A amino acid substitutions (P01116 1-169 isoform P01116-2 G12C/C118A): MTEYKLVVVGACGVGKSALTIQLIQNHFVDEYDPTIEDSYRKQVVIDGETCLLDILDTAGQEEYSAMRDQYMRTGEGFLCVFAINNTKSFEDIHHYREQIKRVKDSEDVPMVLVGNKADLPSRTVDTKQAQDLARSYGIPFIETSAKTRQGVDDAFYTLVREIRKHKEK

The test system of experiment [2] is Phosphorylation of ERK1/2 in MIA PaCa-2 cells. In words: Phospho-ERK1/2 MSD assay in MIA PaCa-2 cells. The class given is cell-based. To be noted: read-out: p-ERK IC50 (2 h; MIA PaCa-2), 2 h compound treatment. In a few lines:
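IC50 comes from a 4-parameter logistic fit of MSD phospho-ERK1/2 signal in lysates. Before lysis, MIA PaCa-2 or A549 cells were exposed to titrated compound for 2 or 4 h at 37 °C, followed by a 10 min 10 ng/mL EGF stimulus.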

As to `C=CC(=O)N1CCN(c2nc(=O)n(-c3ccccc3C(C)C)c3nc(-c4cc(N)ccc4Br)c(Cl)cc23)[C@@H](C)C1` [Example 56-6, 7-(5-amino-2-bromophenyl)-6-chloro-4-((2S)-2-methyl-4-(2-propenoyl)-1-piperazinyl)-1-(2-(2-propanyl)phenyl)pyrido[2,3-d]pyrimidin-2(1H)-one], the “Coupled exchange IC50 (5 min)” value in experiment [1] is listed as 0.125 | nda μM. Further, the IC50 in experiment [2] (Homo sapiens, MIA PaCa-2, 2 h) was 84 nM.
`C=CC(=O)N1CCN(c2nc(=O)n(-c3ncccc3C(C)C)c3nc(-c4c(O)cccc4F)c(F)cc23)[C@@H](C)C1` [Example 57-10, 6-fluoro-7-(2-fluoro-6-hydroxyphenyl)-4-((2S)-2-methyl-4-(2-propenoyl)-1-piperazinyl)-1-(3-(2-propanyl)-2-pyridinyl)pyrido[2,3-d]pyrimidin-2(1H)-one]: in experiment [1], the “Coupled exchange IC50 (5 min)” value is given as 0.452 | nda μM. The IC50 in experiment [2] (Homo sapiens, MIA PaCa-2, 2 h) was found to be 105 nM.
In the case of `C=CC(=O)N1CCN(c2nc(=O)n(-c3c(C)cccc3C(C)C)c3nc(-c4ccccc4F)c(Cl)cc23)[C@@H](C)C1` (atropisomer, axis not shown; (M)) [Example 64-1, (M)-6-Chloro-7-(2-fluorophenyl)-1-(2-methyl-6-(2-propanyl)phenyl)-4-((2S)-2-methyl-4-(2-propenoyl)-1-piperazinyl)pyrido[2,3-d]pyrimidin-2(1H)-one], the values for the IC50 in experiment [1] and in experiment [2] were 44 nM and 76 nM, respectively.
Take `C=CC(=O)N1CCN(c2nc(=O)n(-c3ccnn3C3CCC3)c3nc(-c4c(O)cccc4F)c(Cl)cc23)[C@@H](C)C1` [Example 54-28, 6~chloro-1-(1-cyclobutyl-1H-pyrazol-5-yl)-7-(2-fluoro-6-hydroxyphenyl)-4-((2S)-2-methyl-4-(2-propenoyl)-1-piperazinyl) pyrido[2,3-d]pyrimidin-2(1H)-one]: in experiment [1], the “Coupled exchange IC50 (5 min)” value is 0.19 | nda μM. The IC50 in experiment [2] (Homo sapiens, MIA PaCa-2, 2 h) was determined as 245 nM.
For the compound `C=CC(=O)N1CCN(c2nc(=O)n(-c3c(C)cccc3C3CC3)c3nc(-c4c(O)cccc4F)c(Cl)cc23)[C@@H](C)C1` [Example 55-15, 6-chloro-1-(2-cyclopropyl-6-methylphenyl)-7-(2-fluoro-6-hydroxyphenyl)-4-((2S)-2-methyl-4-(2-propenoyl)-1-piperazinyl)pyrido[2,3-d]pyrimidin-2(1H)-one], in experiment [1], the “Coupled exchange IC50 (5 min)” value is listed as 0.055 | nda μM. Also, in experiment [2] (Homo sapiens, MIA PaCa-2, 2 h), the IC50 is 92 nM.
For `C=CC(=O)N1CCN(c2nc(=O)n(-c3c(OC)cccc3C(C)C)c3nc(-c4c(O)cccc4F)c(Cl)cc23)[C@@H](C)C1` (single isomer, unassigned) [Example 54-73-1], in experiment [1], the “Coupled exchange IC50 (5 min)” value is 0.025 | nda μM. Moreover, the IC50 in experiment [2] is 38 nM.
With `C=CC(=O)N1CCN(c2nc(=O)n(-c3c(OC)cccc3C(C)C)c3nc(-c4c(O)cccc4F)c(Cl)cc23)[C@@H](C)C1` [Example 54-73, 6-chloro-7-(2-fluoro-6-hydroxy-phenyl)-1-(2-methoxy-6-(2-propanyl)phenyl)-4-((2S)-2-methyl-4-(2-propenoyl)-1-piperazinyl) pyrido[2,3-d]pyrimidin-2(1H)-one], the “Coupled exchange IC50 (5 min)” value in experiment [1] is recorded as 0.062 | nda μM. For the same compound, the IC50 in experiment [2] (Homo sapiens, MIA PaCa-2, 2 h) was 64 nM.
The corresponding values for `C=CC(=O)N1CCN(c2nc(=O)n(-c3c(F)cccc3C(C)C)c3nc(-c4ccccc4F)c(F)cc23)[C@@H](C)C1` [Example 59-3, 6-fluoro-7-(2-fluorophenyl)-1-(2-fluoro-6-(2-propanyl)phenyl)-4-((2S)-2-methyl-4-(2-propenoyl)-1-piperazinyl)pyrido[2,3-d]pyrimidin-2(1H)-one] are 0.521 | nda μM and 619 nM.
The corresponding values for `C=CC(=O)N1C[C@@H](C)N(c2nc(=O)n(-c3c(C)ccnc3C(C)C)c3nc(-c4c(N)cccc4F)c(F)cc23)[C@@H](C)C1` (single isomer, unassigned) [Example 75-8] are 0.023 | nda μM and 38 nM.
The like results for `C=CC(=O)N1CCN(c2nc(=O)n(-c3ccccc3C(C)C)c3nc(-c4cc(OC)ccc4F)c(Cl)cc23)[C@@H](C)C1` [Example 56-9, 6-chloro-7-(2-fluoro-5-methoxyphenyl)-4-((2S)-2-methyl-4-(2-propenoyl)-1-piperazinyl)-1-(2-(2-propanyl)phenyl)pyrido[2,3-d]pyrimidin-2(1H)-one] were, in that order, 0.269 | nda μM and 160 nM.
For the compound `C=CC(=O)N1CCN(c2nc(=O)n(-c3c(C)cc(CN(C)C)cc3C(C)C)c3nc(-c4ccccc4F)c(Cl)cc23)[C@@H](C)C1` (single isomer, unassigned) [Example 80-1-2], in experiment [1], the “Coupled exchange IC50 (5 min)” value is 0.556 | nda μM. Moreover, in experiment [2], the IC50 came out at 236 nM.
On to `C=CC(=O)N1C[C@@H](C)N(c2nc(=O)n(-c3c(C)ccnc3C(C)C)c3nc(-c4c(O)cccc4F)c(F)cc23)[C@@H](C)C1` (atropisomer, axis not shown; (M)) [Example 75-1, (M)-4-(cis-2,6-Dimethyl-4-(2-propenoyl)-1-piperazinyl)-6-fluoro-7-(2-fluoro-6-hydroxyphenyl)-1-(4-methyl-2-(2-propanyl)-3-pyridinyl)pyrido[2,3-d]pyrimidin-2(1H)-one], for which the IC50 worked out at 48 nM in experiment [1] and 49 nM in experiment [2].
For the compound `C=CC(=O)N1CCN(c2nc(=O)n(-c3ccccc3S(F)(F)(F)(F)F)c3nc(-c4c(O)cccc4F)c(Cl)cc23)[C@@H](C)C1` (single isomer, unassigned) [Example 56-1-2], in experiment [1], the “Coupled exchange IC50 (5 min)” value is given as 0.068 | nda μM. The IC50 in experiment [2] (Homo sapiens, MIA PaCa-2, 2 h) was found to be 145 nM.
The corresponding values for `C=CC(=O)N1CCN(c2nc(=O)n(-c3c(C)cccc3C(C)C)c3nc(-c4c(O)cccc4F)c(F)cc23)C[C@H]1C` (single isomer, unassigned) [Example 63-2] are 0.311 | nda μM and 609 nM.
The like results for `C=CC(=O)N1CCN(c2nc(=O)n(-c3n[nH]cc3C(C)C)c3nc(-c4ccccc4F)c(Cl)cc23)[C@@H](C)C1` [Example 54-111, 6-chloro-7-(2-fluorophenyl)-4-((2S)-2-methyl-4-(2-propenoyl)-1-piperazinyl)-1-(4-(2-propanyl)-1H-pyrazol-3-yl)pyrido[2,3-d]pyrimidin-2(1H)-one] were, in that order, 0.417 | nda μM and 791 nM.
`C=CC(=O)N1CCN(c2nc(=O)n(-c3c(CC)ncnc3CC)c3nc(-c4ccc(F)cc4F)c(Cl)cc23)[C@@H](C)C1` [Example 55-35, 6-chloro-1-(4,6-diethyl-5-pyrimidinyl)-7-(2,4-difluorophenyl)-4-((2S)-2-methyl-4-(2-propenoyl)-1-piperazinyl)pyrido[2,3-d]pyrimidin-2(1H)-one]: the “Coupled exchange IC50 (5 min)” value in experiment [1] is recorded as 0.225 | nda μM. Further, in experiment [2] (Homo sapiens, MIA PaCa-2, 2 h), the IC50 turned out to be 252 nM.
As for `C=CC(=O)N1CCN(c2nc(=O)n(-c3c(C)cc(C(=O)O)cc3C(C)C)c3nc(-c4ccccc4F)c(Cl)cc23)[C@@H](C)C1` [Example 141, 4-(6-Chloro-7-(2-fluorophenyl)-4-((2S)-2-methyl-4-(2-propenoyl)-1-piperazinyl)-2-oxopyrido[2,3-d]pyrimidin-1(2H)-yl)-3-methyl-5-(2-propanyl)benzoic acid], in experiment [1], the “Coupled exchange IC50 (5 min)” value is on record as 0.393 | nda μM. For the same compound, the concentration for half-maximal inhibition (IC50) in experiment [2] (Homo sapiens, MIA PaCa-2, 2 h) was determined as 5200 nM.
The corresponding values for `C=CC(=O)N1CCN(c2nc(=O)n(-c3c(C)ncnc3C(C)C)c3nc(-c4cc(C)ccc4F)c(Cl)cc23)[C@@H](C)C1` [Example 55-40, 6-chloro-7-(2-fluoro-5-methylphenyl)-1-(4-methyl-6-(2-propanyl)-5-pyrimidinyl)-4-((2S)-2-methyl-4-(2-propenoyl)-1-piperazinyl)pyrido[2,3-d]pyrimidin-2(1H)-one] are 0.1 | nda μM and 149 nM.
The corresponding values for `C=CC(=O)N1C[C@H](C)N(c2nc(=O)n(-c3c(C)ccnc3C(C)C)c3nc(-c4ccccc4F)c(F)cc23)[C@@H](C)C1` (atropisomer, axis not shown; (M)) [Example 72-14, (M)-4-((2S,6S)-2,6-dimethyl-4-(2-propenoyl)-1-piperazinyl)-6-fluoro-7-(2-fluorophenyl)-1-(4-methyl-2-(2-propanyl)-3-pyridinyl)pyrido[2,3-d]pyrimidin-2(1H)-one] are 0.081 | nda μM and 55 nM.
In the case of `C=CC(=O)N1CCN(c2nc(=O)n(-c3c(C)ccnc3C(C)C)c3nc(-c4nc(N)ccc4Cl)c(F)cc23)C(C)C1` (atropisomer, axis not shown; (M)) [Example 65-1, (M)-7-(6-Amino-3-chloro-2-pyridinyl)-6-fluoro-1-(4-methyl-2-(2-propanyl)-3-pyridinyl)-4-((2S)-2-methyl-4-(2-propenoyl)-1-piperazinyl)pyrido[2,3-d]pyrimidin-2(1H)-one], the “Coupled exchange IC50 (5 min)” value in experiment [1] is 0.606 | nda μM. For the same compound, the concentration for half-maximal inhibition (IC50) in experiment [2] (Homo sapiens, MIA PaCa-2, 2 h) came to 1520 nM.
Take `C=CC(=O)N1CCN(c2nc(=O)n(-c3ccccc3C3CCC3)c3nc(-c4ccccc4F)c(Cl)cc23)[C@@H](C)C1` (single isomer, unassigned) [Example 54-12-1]: in experiment [1], the “Coupled exchange IC50 (5 min)” value is given as 0.13 | nda μM. Besides, the IC50 in experiment [2] worked out at 78 nM.
For `C=CC(=O)N1CCN(c2nc(=O)n(-c3c(C)cccc3CC)c3nc(-c4ccccc4F)c(Cl)cc23)[C@@H](C)C1` (single isomer, unassigned) [Example 55-9-2], the “Coupled exchange IC50 (5 min)” value in experiment [1] is 0.158 | nda μM. In addition, the concentration for half-maximal inhibition (IC50) in experiment [2] is 298 nM.
Consider `C=CC(=O)N1CCN(c2nc(=O)n(-c3c(C)cccc3C(C)C)c3nc(-c4cccc(F)c4O)c(Cl)cc23)[C@@H](C)C1` (single isomer, unassigned) [Example 64-3], for which the “Coupled exchange IC50 (5 min)” value in experiment [1] was 0.189 | nda μM. In experiment [2] (Homo sapiens, MIA PaCa-2, 2 h), the IC50 was determined as 219 nM.

The IC50 is the concentration that inhibits the measured activity by half.

For the origin of these results see patent US11090304B2 (Amgen Inc., priority 2018, dated 2021).
